How the values were obtained:
CCK-A receptors = settings: in words; cited from earlier work
CCK-B receptors = settings: in words; cited from earlier work
stomach gastrin receptor = settings: in words; cited from earlier work
CCK receptor (pancreas) = target: T1, CCK receptor (pancreas) (Rattus norvegicus, UniProt P30551); experiment: CCK receptor binding (Pancreas), inhibition of 125I-CCK binding; set-up: species or system rat (male Sprague-Dawley); settings: 125I-CCK-33, 37° C., 30 minutes, read-out: IC^50 ^125 I-CCK Pancreas
T1 construct: The whole pancreas was dissected free of fat tissue and was homogenized; from tissue; host or cells: rat whole pancreas, membrane preparation
T1 sequence (P30551 1-444): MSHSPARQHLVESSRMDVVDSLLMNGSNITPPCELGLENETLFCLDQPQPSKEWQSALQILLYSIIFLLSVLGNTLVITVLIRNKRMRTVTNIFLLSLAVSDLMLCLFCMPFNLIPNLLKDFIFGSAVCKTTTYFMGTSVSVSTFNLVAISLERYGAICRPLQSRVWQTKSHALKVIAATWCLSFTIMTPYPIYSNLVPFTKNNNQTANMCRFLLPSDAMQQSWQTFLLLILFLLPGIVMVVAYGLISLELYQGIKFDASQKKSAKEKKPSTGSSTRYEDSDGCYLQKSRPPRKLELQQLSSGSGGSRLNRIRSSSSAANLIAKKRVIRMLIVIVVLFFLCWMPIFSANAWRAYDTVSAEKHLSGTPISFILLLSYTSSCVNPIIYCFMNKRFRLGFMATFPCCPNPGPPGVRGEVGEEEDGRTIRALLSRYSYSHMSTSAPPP
Description: 1. CCK Receptor Binding (Pancreas)
CCK-33 was radiolabeled with ^125 I-Bolton Hunter reagent (2000 Ci/mmole) as described by Sankara et al. (J. Biol. Chem. 254: 9349-9351, 1979). Receptor binding was performed according to Innis and Snyder (Proc. Natl. Acad. Sci. 77: 6917-6921, 1980) with the minor modification of adding the additional protease inhibitors, phenyl-methane sulfonyl fluoride and o-phenanthroline. The latter two compounds have no effect on the ^125 I-CCK receptor binding assay.
Male Sprague-Dawley rats (200-350g) were sacrificed by decapitation. The whole pancreas was dissected free of fat tissue and was homogenized in 20 volumes of ice-cold 50 mM, Tris HCl (pH 7.7 at 25° C.) with a Brinkmann Polytron PT 10. The homogenates were centrifuged at 48,000 g for 10 min. Pellets were resuspended in Tris Buffer, centrifuged as above and resuspended in 200 volumes of binding assay buffer (50 mM Tris HCl, pH 7.7 at 25° C., 5 mM dithiothrietol, 0.1 mM bacitracin, 1.2 mM phenylmethane sulfonyl fluoride and 0.5 mM o-phenanthroline). […] All assays were run in duplicate or triplicate. The reaction mixtures were incubated at 37° C. for 30 minutes and centrifuged in a Beckman Microfuge (4 minutes) immediately after adding 1 ml of ice-cold incubation buffer. The supernatant was aspirated and discarded, pellets were counted with a Beckman gamma 5000. For Scatchard analysis (Ann. N.Y. Acad. Sci. 51: 660, 1949), ^125 I-CCK-33 was progressively diluted with increasing concentrations of CCK-33.

CCK receptor (brain) = target: T2, CCK receptor (brain) (Cavia porcellus, UniProt H0VZC5); experiment: CCK receptor binding (Brain), inhibition of 125I-CCK binding; set-up: species or system guinea pig (male Hartley); settings: guinea pig cerebral cortex, 125I-CCK-33, 25° C., 2 hours; read-out: IC^50 ^125 I-CCK Brain
T2 construct: Cerebral cortex was dissected and used as a receptor source; from tissue; host or cells: guinea pig cerebral cortex, membrane preparation
T2 sequence (H0VZC5 entry or part of it): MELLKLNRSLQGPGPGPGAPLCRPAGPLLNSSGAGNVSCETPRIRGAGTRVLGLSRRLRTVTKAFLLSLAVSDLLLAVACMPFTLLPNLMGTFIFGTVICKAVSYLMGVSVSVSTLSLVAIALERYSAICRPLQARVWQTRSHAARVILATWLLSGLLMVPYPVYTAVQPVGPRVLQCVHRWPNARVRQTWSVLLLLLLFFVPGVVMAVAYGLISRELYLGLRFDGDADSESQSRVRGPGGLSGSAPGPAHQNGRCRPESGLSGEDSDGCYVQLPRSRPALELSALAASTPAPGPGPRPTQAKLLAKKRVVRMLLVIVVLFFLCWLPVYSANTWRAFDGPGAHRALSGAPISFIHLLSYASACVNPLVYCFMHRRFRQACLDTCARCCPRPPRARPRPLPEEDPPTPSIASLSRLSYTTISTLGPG
Description: 2. CCK Receptor Binding (Brain)
CCK-33 was radiolabeled and the binding was performed according to the description for the pancreas method with modifications according to Saito et al., J. Neurochem. 37, 483-490, 1981.
Male Hartley guinea pigs (300-500 g) were sacrificed by decapitation and the brains were removed and placed in ice-cold 50 mM, Tris HCl plus 7.58 g/l Trizma-7.4 (pH 7.4 at 25° C.). Cerebral cortex was dissected and used as a receptor source. Each gram of fresh guinea pig brain tissue was homogenized in 10 ml of Tris Trizma buffer with a Brinkman polytron PT-10. The homogenates were centrifuged at 42,000 g for 15 min. […] All assays were run in duplicate or triplicate. The reaction mixtures were incubated at 25° C. for 2 hours and centrifuged in a Beckman Microfuge (4 minutes) immediately after adding 1 ml of ice-cold incubation buffer. The supernatant was aspirated and discarded, pellets were counted with a Beckman gamma 5000.

gastrin receptor = target: T3, gastrin receptor (Cavia porcellus, UniProt H0VZC5); experiment: Gastrin receptor binding in guinea pig gastric glands; set-up: species or system guinea pig (male Hartley); settings: read-out: IC^50 Gastrin
T3 construct: Guinea pig gastric mucosal glands were prepared by the procedure of Berglingh and Obrink; from tissue; host or cells: guinea pig gastric mucosal glands
T3 sequence (H0VZC5 entry or part of it): as above
Description: Gastrin antagonist activity of compounds of Formula I is determined using the following assay: […]
Gastrin Receptor Binding in Guinea Pig Gastric Glands Preparation of guinea pig gastric mucosal glands
Guinea pig gastric mucosal glands were prepared by the procedure of Berglingh and Obrink Acta Physiol. Scand. 96: 150 (1976) with a slight modification according to Praissman et al. C. J. Receptor Res. 3: (1983). Gastric mucosa from guinea pigs (300-500 g body weight, male Hartley) were washed thoroughly and minced with fine scissors in standard buffer consisting of the following: 130 mM NaCl, 12 mM NaHCO3, 3 mM NaH2 PO4, 3 mM K2 HPO4, 2 mM MgSO4, 1 mM CaCl2, 5 mM glucose and 4 mM L-glutamine, 25 mM HEPES at pH 7.4. The minced tissues were washed and then incubated in a 37° C. shaker bath for 40 minutes with the buffer containing 0.1% collagenase and 0.1% BSA and bubbled with 95% O2 and 5% CO2. The tissues were passed twice through a 5 ml glass syringe to liberate the gastric glands, and then filtered through 200 mesh nylon. The filtered glands were centrifuged at 270 g for 5 minutes and washed twice by resuspension and centrifugation.

[1] = rat, brain synaptosomal fraction; cited from earlier work

Row | Compound | affinity for CCK-A receptors (CCK-A receptors) | affinity for CCK-B receptors (CCK-B receptors) | IC50 (CCK receptor (pancreas)) [nM] | IC50 (CCK receptor (brain)) [nM] | IC50 (gastrin receptor) [nM] | also measured
1 | CSCC[C@H](NC(=O)[C@@H](N)Cc1c[nH]c2ccccc12)C(=O)N[C@@H](CC(=O)O)C(=O)N[C@@H](Cc1ccccc1)C(N)=O [CCK-4] | lower affinity | high affinity |  |  |  | potency at stomach gastrin receptor (stomach gastrin receptor): minimum fully potent CCK sequence
2 | CSCC[C@H](NC(=O)[C@H](Cc1ccc(O)cc1)NC(=O)[C@@H](N)CC(=O)O)C(=O)NCC(=O)N[C@@H](Cc1c[nH]c2ccccc12)C(=O)N[C@@H](CCSC)C(=O)N[C@@H](CC(=O)O)C(=O)N[C@@H](Cc1ccccc1)C(N)=O [CCK-8d] | lower affinity |  |  |  |  | 
3 | CCN(CC)CCCNC1=Nc2ccccc2C(c2ccccc2)=NC1NC(=O)Nc1cccc(C)c1 (stereo not shown) [Example 13, N-[2-[((3-Diethylamino)propyl)amino]-5-phenyl-3H-1,4-benzodiazepin-3-yl]-N'-[3-methylphenyl]-urea] |  |  | 14000 | 78 | 120 | 
4 | CSC1=Nc2ccccc2C(c2ccccc2F)=N[C@@H]1Cc1c[nH]c2ccccc12 [Example 2, 2-Methylthio-3(R)-(3'-indolyl)methyl-5-(2'-fluorophenyl)2H-1,4-benzodiazepine] |  |  | 17000 |  |  | 
5 | Cc1cccc(NC(=O)NC2N=C(c3ccccc3)c3ccccc3N=C2NCCCN2CCCC2=O)c1 (stereo not shown) [Example 14, N-[3-Methylphenyl]-N'-[2-((3-(2-oxo)pyrrolidinyl)propyl)amino-5-phenyl-3H-1,4-benzodiazepin-3-yl]-urea] |  |  | 590 | 15 | 13 | 
6 | CSCC[C@H](NC(=O)[C@H](Cc1c[nH]c2ccccc12)NC(=O)CCNC(=O)OC(C)(C)C)C(=O)N[C@@H](CC(=O)O)C(=O)N[C@@H](Cc1ccccc1)C(N)=O [pentagastrin] |  | high affinity |  |  |  | 
7 | CSCC[C@H](NC(=O)[C@H](Cc1ccc(OS(=O)(=O)O)cc1)NC(=O)[C@@H](N)CC(=O)O)C(=O)NCC(=O)N[C@@H](Cc1c[nH]c2ccccc12)C(=O)N[C@@H](CCSC)C(=O)N[C@@H](CC(=O)O)C(=O)N[C@@H](Cc1ccccc1)C(N)=O [CCK-8s, H-Asp-Tyr(SO3 H)-Met-Gly-Trp-Met-Asp-Phe-NH2] | high affinity | high affinity |  |  |  | half-life [1]: less than 1 hour
8 | gastrin: neuropeptide structurally related to cholecystokinin | lower affinity |  |  |  |  | 
9 | Cc1cccc(NC(=O)NC2N=C(c3ccccc3)c3ccccc3N=C2NCC(=O)N2CCN(C)CC2)c1 (stereo not shown) [Example 12, 1-Methyl-4-[[(3-((((3-methylphenyl)amino)carbonyl)amino)-5-phenyl-3H-1,4-benzodiazepin-2-yl)amino]acetyl]-piperazine] |  |  | 1000 | 124 | 180 | 
10 | Cc1cccc(NC(=O)NC2N=C(c3ccccc3)c3ccccc3N=C2NCC(=O)N2CCCC2)c1 (stereo not shown) [Example 11, 1-[[(3-((3-Methylphenylaminocarbonyl)amino)-5-phenyl-3H-1,4-benzodiazepin-2-yl)amino]acetyl]-pyrrolidine] |  |  | 1100 | 5.9 | 20 | 

— patent US5206237A, “Benzodiazepine analogs” (Merck & Co., Inc., priority 1991, dated 1993)
